What all share (conditions): primary screen
The test system of assay [1] is ENR+CD organoids (ISC to Paneth cell differentiation). The experiment in a line: Primary screen: basal (non-stimulated) lysozyme secretion LYZ.NS, 2.5-D 384-well ENR+CD organoid differentiation. It is filed as cell-based, mouse. The text has this: (§1) High-throughput screening.
Assay [2] has the same test system. Nature of the assay: Primary screen: CCh-stimulated lysozyme secretion LYZ.S, 2.5-D 384-well ENR+CD organoid differentiation. In kind it is cell-based, mouse.
Source text: as §1

Assay [3] relates to ENR+CD organoids. The experiment in a line: Primary screen: ATP (CellTiter-Glo 3D, CTG) cell number/viability, 2.5-D 384-well ENR+CD organoids. (Cellular ATP, detected with luciferase, serves as a proxy for viable cell number.)
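Wherever Dose.FC.CTG is given: compounds given at plating and again on day 3 over a 6-day differentiation from ENR+CV stem-cell-enriched precursors, ATP measured on day 6, plate median as control.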
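Wherever Z.CTG (standard z score) is given: compounds given at plating and again on day 3 over a 6-day differentiation from ENR+CV stem-cell-enriched precursors, ATP measured on day 6, plate median as control.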

For the molecule `O=C(O[C@H]1C[C@H]2CC[C@@H](C1)[N+]21CCCC1)C(O)(c1ccccc1)c1ccccc1` [Trospium chloride], the Dose.FC.LYZ.NS in assay [1] (dose 0.08 uM) is listed as 0.169 log2 fold change; in assay [1] (dose 0.40 uM) it was 0.218 log2 fold change; in assay [1] (dose 2.00 uM), −0.002 log2 fold change; in assay [1] (dose 10.00 uM), 0.102 log2 fold change. In addition, the “Z.LYZ.NS (standard z score)” value in assay [1] (dose 0.08 uM) is 1.470; in assay [1] (dose 0.40 uM), 1.895; in assay [1] (dose 2.00 uM), −0.017; in assay [1] (dose 10.00 uM), 0.885. Also, the Dose.FC.LYZ.S was 0.119 log2 fold change in assay [2] (dose 0.08 uM), 0.117 log2 fold change in assay [2] (dose 0.40 uM), −0.008 log2 fold change in assay [2] (dose 2.00 uM) and 0.084 log2 fold change in assay [2] (dose 10.00 uM). Also, the Dose.FC.CTG in assay [3] (dose 0.08 uM) is recorded as 0.083 log2 fold change; in assay [3] (dose 0.40 uM) it was −0.031 log2 fold change; in assay [3] (dose 2.00 uM), 0.200 log2 fold change; in assay [3] (dose 10.00 uM) it was 0.148 log2 fold change.

On to `CC(C)(C)c1cc(/C=C(\C#N)C(N)=S)cc(C(C)(C)C)c1O` [Tyrphostin AG 879], for which the Dose.FC.LYZ.NS in assay [1] (dose 0.08 uM) is reported as 0.010 log2 fold change; in assay [1] (dose 0.40 uM), −0.078 log2 fold change; in assay [1] (dose 2.00 uM), −0.080 log2 fold change; in assay [1] (dose 10.00 uM), −0.110 log2 fold change. Moreover, the “Z.LYZ.NS (standard z score)” value in assay [1] (dose 0.08 uM) is listed as 0.088; in assay [1] (dose 0.40 uM) it was −0.680; in assay [1] (dose 2.00 uM) it was −0.698; in assay [1] (dose 10.00 uM) it was −0.960. The Dose.FC.LYZ.S in assay [2] (dose 0.08 uM) is on record as −0.083 log2 fold change; in assay [2] (dose 0.40 uM), −0.084 log2 fold change; in assay [2] (dose 2.00 uM), −0.051 log2 fold change; in assay [2] (dose 10.00 uM) it was −0.123 log2 fold change. For the same molecule, the Dose.FC.CTG in assay [3] (dose 0.08 uM) is −0.347 log2 fold change; in assay [3] (dose 0.40 uM), −0.238 log2 fold change; in assay [3] (dose 2.00 uM) it was −0.232 log2 fold change; in assay [3] (dose 10.00 uM) it was −0.368 log2 fold change. In addition, the “Z.CTG (standard z score)” value is recorded as −0.828 in assay [3] (dose 0.08 uM), −0.569 in assay [3] (dose 0.40 uM), −0.554 in assay [3] (dose 2.00 uM) and −0.879 in assay [3] (dose 10.00 uM).

`CCO.N#CC(=C(/N)Sc1ccccc1N)/C(C#N)=C(\N)Sc1ccccc1N` [U0126-EtOH]: the Dose.FC.LYZ.NS is reported as 0.099 log2 fold change in assay [1] (dose 0.08 uM), 0.019 log2 fold change in assay [1] (dose 0.40 uM), −0.045 log2 fold change in assay [1] (dose 2.00 uM) and −0.117 log2 fold change in assay [1] (dose 10.00 uM). Also, the “Z.LYZ.NS (standard z score)” value is 0.859 in assay [1] (dose 0.08 uM), 0.163 in assay [1] (dose 0.40 uM), −0.389 in assay [1] (dose 2.00 uM) and −1.021 in assay [1] (dose 10.00 uM). Moreover, the Dose.FC.LYZ.S is recorded as 0.114 log2 fold change in assay [2] (dose 0.08 uM), 0.075 log2 fold change in assay [2] (dose 0.40 uM), −0.071 log2 fold change in assay [2] (dose 2.00 uM) and −0.165 log2 fold change in assay [2] (dose 10.00 uM). Moreover, the Dose.FC.CTG in assay [3] (dose 0.08 uM) is recorded as −0.350 log2 fold change; in assay [3] (dose 0.40 uM), −0.514 log2 fold change; in assay [3] (dose 2.00 uM) it was −0.476 log2 fold change; in assay [3] (dose 10.00 uM), −0.790 log2 fold change. Also, the “Z.CTG (standard z score)” value in assay [3] (dose 0.08 uM) is given as −0.835; in assay [3] (dose 0.40 uM), −1.227; in assay [3] (dose 2.00 uM) it was −1.138; in assay [3] (dose 10.00 uM) it was −1.887.

Regarding `O=C(c1cncc(Br)c1)N1CCC(N2CCCC2)CC1` [UNC669], the Dose.FC.LYZ.NS in assay [1] (dose 0.08 uM) is given as 0.066 log2 fold change; in assay [1] (dose 0.40 uM), −0.006 log2 fold change; in assay [1] (dose 2.00 uM), 0.070 log2 fold change; in assay [1] (dose 10.00 uM) it was 0.029 log2 fold change. The “Z.LYZ.NS (standard z score)” value in assay [1] (dose 0.08 uM) is on record as 0.578; in assay [1] (dose 0.40 uM) it was −0.048; in assay [1] (dose 2.00 uM) it was 0.606; in assay [1] (dose 10.00 uM), 0.249. Further, the Dose.FC.LYZ.S is on record as 0.047 log2 fold change in assay [2] (dose 0.08 uM), −0.029 log2 fold change in assay [2] (dose 0.40 uM), 0.025 log2 fold change in assay [2] (dose 2.00 uM) and 0.002 log2 fold change in assay [2] (dose 10.00 uM). Moreover, the Dose.FC.CTG in assay [3] (dose 0.08 uM) was −0.095 log2 fold change; in assay [3] (dose 0.40 uM), 0.096 log2 fold change; in assay [3] (dose 2.00 uM), −0.235 log2 fold change; in assay [3] (dose 10.00 uM) it was 0.073 log2 fold change. The “Z.CTG (standard z score)” value was −0.226 in assay [3] (dose 0.08 uM), 0.228 in assay [3] (dose 0.40 uM), −0.561 in assay [3] (dose 2.00 uM) and 0.174 in assay [3] (dose 10.00 uM).

As for `CCCCNc1ncc(-c2ccc(CN3CCOCC3)cn2)c(NC2CCC(O)CC2)n1` (stereo not drawn) [UNC2250], the Dose.FC.LYZ.NS is given as 0.115 log2 fold change in assay [1] (dose 0.08 uM), 0.067 log2 fold change in assay [1] (dose 0.40 uM), 0.085 log2 fold change in assay [1] (dose 2.00 uM) and −0.153 log2 fold change in assay [1] (dose 10.00 uM). Moreover, the “Z.LYZ.NS (standard z score)” value in assay [1] (dose 0.08 uM) is on record as 1.005; in assay [1] (dose 0.40 uM), 0.587; in assay [1] (dose 2.00 uM), 0.744; in assay [1] (dose 10.00 uM) it was −1.336. Besides, the Dose.FC.LYZ.S in assay [2] (dose 0.08 uM) is on record as 0.142 log2 fold change; in assay [2] (dose 0.40 uM), 0.113 log2 fold change; in assay [2] (dose 2.00 uM), 0.134 log2 fold change; in assay [2] (dose 10.00 uM), −0.205 log2 fold change. Also, the Dose.FC.CTG in assay [3] (dose 0.08 uM) is recorded as 0.265 log2 fold change; in assay [3] (dose 0.40 uM), 0.279 log2 fold change; in assay [3] (dose 2.00 uM) it was 0.105 log2 fold change; in assay [3] (dose 10.00 uM) it was −0.064 log2 fold change. Moreover, the “Z.CTG (standard z score)” value in assay [3] (dose 0.08 uM) is on record as 0.633; in assay [3] (dose 0.40 uM), 0.667; in assay [3] (dose 2.00 uM), 0.250; in assay [3] (dose 10.00 uM), −0.153.

On to `NC(=O)c1cccc(-c2cccc(OC(=O)NC3CCCCC3)c2)c1` [URB597], for which the Dose.FC.LYZ.NS in assay [1] (dose 0.08 uM) is 0.087 log2 fold change; in assay [1] (dose 0.40 uM), −0.001 log2 fold change; in assay [1] (dose 2.00 uM), 0.035 log2 fold change; in assay [1] (dose 10.00 uM), −0.014 log2 fold change. In addition, the “Z.LYZ.NS (standard z score)” value in assay [1] (dose 0.08 uM) is on record as 0.754; in assay [1] (dose 0.40 uM), −0.007; in assay [1] (dose 2.00 uM) it was 0.307; in assay [1] (dose 10.00 uM), −0.123. Moreover, the Dose.FC.LYZ.S in assay [2] (dose 0.08 uM) is reported as 0.141 log2 fold change; in assay [2] (dose 0.40 uM) it was 0.021 log2 fold change; in assay [2] (dose 2.00 uM), 0.017 log2 fold change; in assay [2] (dose 10.00 uM), −0.044 log2 fold change. The Dose.FC.CTG is 0.314 log2 fold change in assay [3] (dose 0.08 uM), 0.065 log2 fold change in assay [3] (dose 0.40 uM), 0.137 log2 fold change in assay [3] (dose 2.00 uM) and −0.021 log2 fold change in assay [3] (dose 10.00 uM).

For the molecule `CS(=O)(=O)c1ccc(-c2cnc(N)c(C(=O)Nc3ccccc3)n2)cc1` [VE-821], the Dose.FC.LYZ.NS is on record as 0.106 log2 fold change in assay [1] (dose 0.08 uM), 0.063 log2 fold change in assay [1] (dose 0.40 uM), 0.103 log2 fold change in assay [1] (dose 2.00 uM) and −0.284 log2 fold change in assay [1] (dose 10.00 uM). Further, the “Z.LYZ.NS (standard z score)” value is 0.924 in assay [1] (dose 0.08 uM), 0.544 in assay [1] (dose 0.40 uM), 0.901 in assay [1] (dose 2.00 uM) and −2.475 in assay [1] (dose 10.00 uM). In addition, the Dose.FC.LYZ.S is given as 0.130 log2 fold change in assay [2] (dose 0.08 uM), 0.089 log2 fold change in assay [2] (dose 0.40 uM), −0.004 log2 fold change in assay [2] (dose 2.00 uM) and −0.429 log2 fold change in assay [2] (dose 10.00 uM). The Dose.FC.CTG in assay [3] (dose 0.08 uM) was 0.213 log2 fold change; in assay [3] (dose 0.40 uM), 0.130 log2 fold change; in assay [3] (dose 2.00 uM), −0.137 log2 fold change; in assay [3] (dose 10.00 uM), −0.840 log2 fold change.

As to `CNCc1ccc(-c2cc(-c3nc(-c4ccc(S(=O)(=O)C(C)C)cc4)cnc3N)on2)cc1` [VE-822], the Dose.FC.LYZ.NS is 0.058 log2 fold change in assay [1] (dose 0.08 uM), −0.040 log2 fold change in assay [1] (dose 0.40 uM), −0.220 log2 fold change in assay [1] (dose 2.00 uM) and −0.210 log2 fold change in assay [1] (dose 10.00 uM). For the same molecule, the “Z.LYZ.NS (standard z score)” value is on record as 0.505 in assay [1] (dose 0.08 uM), −0.351 in assay [1] (dose 0.40 uM), −1.913 in assay [1] (dose 2.00 uM) and −1.825 in assay [1] (dose 10.00 uM). Further, the Dose.FC.LYZ.S in assay [2] (dose 0.08 uM) was 0.104 log2 fold change; in assay [2] (dose 0.40 uM), −0.064 log2 fold change; in assay [2] (dose 2.00 uM) it was −0.302 log2 fold change; in assay [2] (dose 10.00 uM), −0.321 log2 fold change. The Dose.FC.CTG is −0.147 log2 fold change in assay [3] (dose 0.08 uM), −0.287 log2 fold change in assay [3] (dose 0.40 uM), −0.717 log2 fold change in assay [3] (dose 2.00 uM) and −1.763 log2 fold change in assay [3] (dose 10.00 uM).

The record behind these values is patent US20220323406A1, “METHODS AND COMPOSITIONS FOR DIFFERENTIATING STEM CELLS” (Massachusetts Institute of Technology, priority 2019, published 2022).
